The target of one test is Ephrin type-A receptor 4 (Homo sapiens, UniProt P54764). The experiment in a line: Selectivity interaction (Kinase panel (Z-LYTE Assay)) EUB0001632a EPHA4. As to conditions: at 10 µM.
Test [1] concerns the target T1, Serine/threonine-protein kinase 36 (Homo sapiens) (UniProt Q9NRP7).
T1 sequence (whole entry): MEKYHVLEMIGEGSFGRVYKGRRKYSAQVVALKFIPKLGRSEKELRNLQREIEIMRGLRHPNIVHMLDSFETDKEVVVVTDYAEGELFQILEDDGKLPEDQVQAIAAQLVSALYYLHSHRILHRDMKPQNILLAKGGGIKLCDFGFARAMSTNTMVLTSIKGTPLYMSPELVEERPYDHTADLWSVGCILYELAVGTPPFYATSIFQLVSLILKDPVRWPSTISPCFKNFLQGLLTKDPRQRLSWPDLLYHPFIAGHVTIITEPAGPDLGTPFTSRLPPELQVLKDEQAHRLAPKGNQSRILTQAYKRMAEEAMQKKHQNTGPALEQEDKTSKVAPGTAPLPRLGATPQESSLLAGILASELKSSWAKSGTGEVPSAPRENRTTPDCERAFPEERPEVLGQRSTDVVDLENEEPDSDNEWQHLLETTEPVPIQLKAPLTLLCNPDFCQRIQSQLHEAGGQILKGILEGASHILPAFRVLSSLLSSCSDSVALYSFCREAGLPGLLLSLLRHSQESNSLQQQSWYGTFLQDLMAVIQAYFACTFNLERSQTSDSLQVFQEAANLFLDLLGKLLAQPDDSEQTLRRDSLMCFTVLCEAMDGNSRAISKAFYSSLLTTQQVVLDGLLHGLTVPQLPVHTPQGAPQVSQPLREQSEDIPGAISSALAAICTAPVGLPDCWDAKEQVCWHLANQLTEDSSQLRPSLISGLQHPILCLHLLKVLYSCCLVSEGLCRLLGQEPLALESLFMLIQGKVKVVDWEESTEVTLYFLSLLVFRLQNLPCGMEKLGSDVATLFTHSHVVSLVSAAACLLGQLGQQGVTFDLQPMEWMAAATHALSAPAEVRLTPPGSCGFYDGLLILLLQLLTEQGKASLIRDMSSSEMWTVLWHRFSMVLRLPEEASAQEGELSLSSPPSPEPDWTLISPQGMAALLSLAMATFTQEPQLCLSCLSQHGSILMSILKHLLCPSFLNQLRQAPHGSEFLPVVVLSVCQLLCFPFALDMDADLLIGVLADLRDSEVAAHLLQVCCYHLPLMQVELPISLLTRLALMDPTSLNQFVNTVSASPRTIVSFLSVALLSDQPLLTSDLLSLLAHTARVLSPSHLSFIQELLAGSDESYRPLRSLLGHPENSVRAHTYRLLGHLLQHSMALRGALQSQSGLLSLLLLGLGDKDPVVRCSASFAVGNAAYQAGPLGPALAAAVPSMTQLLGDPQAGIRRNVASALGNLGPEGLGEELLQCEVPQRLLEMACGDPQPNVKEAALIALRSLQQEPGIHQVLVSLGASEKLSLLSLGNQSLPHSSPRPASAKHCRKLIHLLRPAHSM
Kind of test: Selectivity interaction (KinomeScan (DiscoverX)) EUB0000695a STK36. As to conditions: at 100 nM.

The target of test [2] is Citron Rho-interacting kinase (Homo sapiens) (UniProt O14578). Conditions: at 10 µM.
Sequence of Citron Rho-interacting kinase (Homo sapiens) (O14578 whole entry): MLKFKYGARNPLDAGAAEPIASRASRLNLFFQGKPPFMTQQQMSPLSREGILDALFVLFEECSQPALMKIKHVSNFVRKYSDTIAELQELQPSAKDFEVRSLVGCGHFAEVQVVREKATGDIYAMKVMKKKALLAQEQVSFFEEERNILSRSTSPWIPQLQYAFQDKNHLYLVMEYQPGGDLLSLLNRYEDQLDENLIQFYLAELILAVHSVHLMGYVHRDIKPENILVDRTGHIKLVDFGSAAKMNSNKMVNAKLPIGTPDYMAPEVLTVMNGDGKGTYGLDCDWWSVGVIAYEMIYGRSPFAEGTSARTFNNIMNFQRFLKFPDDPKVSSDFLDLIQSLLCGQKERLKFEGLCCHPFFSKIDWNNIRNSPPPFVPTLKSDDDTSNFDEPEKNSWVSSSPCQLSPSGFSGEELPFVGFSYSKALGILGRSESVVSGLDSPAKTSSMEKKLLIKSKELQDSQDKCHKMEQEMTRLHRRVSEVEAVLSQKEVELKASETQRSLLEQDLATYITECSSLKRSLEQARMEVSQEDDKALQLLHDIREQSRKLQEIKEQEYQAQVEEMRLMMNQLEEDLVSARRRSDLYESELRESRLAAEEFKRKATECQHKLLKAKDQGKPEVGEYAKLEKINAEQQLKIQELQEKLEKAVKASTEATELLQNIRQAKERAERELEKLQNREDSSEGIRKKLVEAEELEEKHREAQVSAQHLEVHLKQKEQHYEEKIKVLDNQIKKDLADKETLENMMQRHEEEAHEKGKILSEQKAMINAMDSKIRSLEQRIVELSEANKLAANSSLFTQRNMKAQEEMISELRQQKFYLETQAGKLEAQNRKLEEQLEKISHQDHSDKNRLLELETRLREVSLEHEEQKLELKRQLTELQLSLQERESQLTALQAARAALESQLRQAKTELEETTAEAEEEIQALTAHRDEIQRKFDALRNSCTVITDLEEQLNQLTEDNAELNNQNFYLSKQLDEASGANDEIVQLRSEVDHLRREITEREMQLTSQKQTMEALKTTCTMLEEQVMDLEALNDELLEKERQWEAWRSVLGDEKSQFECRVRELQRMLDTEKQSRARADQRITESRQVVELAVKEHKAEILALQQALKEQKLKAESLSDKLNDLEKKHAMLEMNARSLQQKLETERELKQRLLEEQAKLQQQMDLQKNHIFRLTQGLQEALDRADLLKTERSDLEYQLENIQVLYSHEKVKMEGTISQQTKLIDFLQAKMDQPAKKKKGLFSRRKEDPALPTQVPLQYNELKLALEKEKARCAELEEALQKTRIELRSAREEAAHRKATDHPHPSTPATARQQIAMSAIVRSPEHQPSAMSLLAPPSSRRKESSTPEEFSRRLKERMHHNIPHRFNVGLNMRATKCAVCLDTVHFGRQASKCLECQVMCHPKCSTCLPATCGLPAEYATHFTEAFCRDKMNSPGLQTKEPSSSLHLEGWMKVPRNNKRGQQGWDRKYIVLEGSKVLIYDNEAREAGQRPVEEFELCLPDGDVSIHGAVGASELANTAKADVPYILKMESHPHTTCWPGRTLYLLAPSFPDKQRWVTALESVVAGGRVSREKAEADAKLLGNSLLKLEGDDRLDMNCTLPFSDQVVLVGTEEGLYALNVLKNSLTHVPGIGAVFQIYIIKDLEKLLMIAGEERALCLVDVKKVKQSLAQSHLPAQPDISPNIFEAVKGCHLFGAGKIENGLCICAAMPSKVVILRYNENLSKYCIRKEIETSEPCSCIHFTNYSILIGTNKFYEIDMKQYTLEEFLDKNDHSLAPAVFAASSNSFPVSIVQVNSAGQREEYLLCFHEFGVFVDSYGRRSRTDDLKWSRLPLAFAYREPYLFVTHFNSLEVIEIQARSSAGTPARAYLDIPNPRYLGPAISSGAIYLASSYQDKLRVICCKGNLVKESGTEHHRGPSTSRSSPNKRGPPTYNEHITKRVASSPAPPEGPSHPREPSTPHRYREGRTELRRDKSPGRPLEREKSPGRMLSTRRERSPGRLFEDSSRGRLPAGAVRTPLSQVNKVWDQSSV
Test [3] has as its target Tyrosine-protein kinase JAK1 (Homo sapiens, UniProt P23458). The experiment in a line: Selectivity interaction (ActivX KiNativ screen (kinase selectivity in THP-1 cell lysates)) EUB0000639a JAK1. Format: subcellular. Conditions: lysate, at 0.2 µM.
The target in test [4] is Cyclin-dependent kinase 17 (Homo sapiens) (UniProt Q00537). The experiment in a line: Selectivity interaction (ActivX KiNativ screen (kinase selectivity in THP-1 cell lysates)) EUB0000639a CDK17. As to conditions: lysate, at 0.2 µM. It counts as subcellular.
For test [5], the target named is Serine/threonine-protein kinase PLK1 (Homo sapiens, UniProt P53350). The experiment in a line: Selectivity interaction (ActivX KiNativ screen (kinase selectivity in THP-1 cell lysates)) EUB0000639a PLK1. It counts as subcellular. Conditions: lysate, at 0.2 µM.
Sequence of Serine/threonine-protein kinase PLK1 (P53350 whole entry): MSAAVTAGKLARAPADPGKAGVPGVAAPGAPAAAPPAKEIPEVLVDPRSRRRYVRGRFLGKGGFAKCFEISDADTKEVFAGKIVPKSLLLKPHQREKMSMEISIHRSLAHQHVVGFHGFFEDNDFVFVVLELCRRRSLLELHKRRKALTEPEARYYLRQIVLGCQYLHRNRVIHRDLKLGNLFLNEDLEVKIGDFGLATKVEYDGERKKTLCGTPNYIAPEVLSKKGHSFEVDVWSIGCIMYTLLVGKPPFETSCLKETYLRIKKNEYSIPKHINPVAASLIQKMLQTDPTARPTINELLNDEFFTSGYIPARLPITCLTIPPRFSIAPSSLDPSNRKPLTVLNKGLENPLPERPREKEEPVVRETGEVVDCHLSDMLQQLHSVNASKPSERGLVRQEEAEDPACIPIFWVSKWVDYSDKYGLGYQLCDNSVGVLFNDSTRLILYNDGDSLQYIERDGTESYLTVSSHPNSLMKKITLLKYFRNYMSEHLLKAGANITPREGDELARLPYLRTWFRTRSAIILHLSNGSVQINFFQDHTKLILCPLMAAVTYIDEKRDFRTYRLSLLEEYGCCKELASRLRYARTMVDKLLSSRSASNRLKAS
Test [6] addresses Histone-lysine N-methyltransferase 2A (Homo sapiens) (UniProt Q03164). Conditions: at 10 µM.
Test [7] concerns the target Histone-lysine N-methyltransferase KMT5B (Homo sapiens) (UniProt Q4FZB7). As to conditions: at 10 µM.
For test [8], the target named is Serine/threonine-protein kinase PAK 2 (Homo sapiens) (UniProt Q13177). The experiment in a line: Selectivity interaction (Ambit KINOMEscan and KiNATiv profiling in Jurkat cells) EUB0000090b PAK2. Format: cell-based. As to conditions: at 1 µM.
Sequence of Serine/threonine-protein kinase PAK 2 (Homo sapiens) (Q13177 whole entry): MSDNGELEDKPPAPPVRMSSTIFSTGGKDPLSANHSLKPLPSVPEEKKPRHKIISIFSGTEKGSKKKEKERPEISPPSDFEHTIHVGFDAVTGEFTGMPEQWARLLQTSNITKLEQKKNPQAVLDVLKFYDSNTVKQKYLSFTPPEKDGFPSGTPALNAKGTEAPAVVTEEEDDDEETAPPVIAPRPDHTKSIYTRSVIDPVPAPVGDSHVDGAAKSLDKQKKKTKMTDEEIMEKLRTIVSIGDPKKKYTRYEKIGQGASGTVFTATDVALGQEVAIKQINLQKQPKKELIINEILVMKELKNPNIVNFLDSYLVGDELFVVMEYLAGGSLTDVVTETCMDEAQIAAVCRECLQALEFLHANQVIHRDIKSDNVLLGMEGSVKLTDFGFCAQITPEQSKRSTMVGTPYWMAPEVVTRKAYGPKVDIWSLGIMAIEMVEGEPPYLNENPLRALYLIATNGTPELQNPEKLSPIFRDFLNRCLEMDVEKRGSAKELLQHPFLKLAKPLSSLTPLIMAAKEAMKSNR
The target of test [9] is Serine/threonine-protein kinase PLK2 (Homo sapiens, UniProt Q9NYY3).
Test [10] addresses Cyclin-dependent kinase 16 (Homo sapiens) (UniProt Q00536). Kind of test: Selectivity interaction (KinomeScan (DiscoverX)) EUB0001049a CDK16. Conditions: at 1 µM.
The target of test [11] is Casein kinase I isoform gamma-3 (Homo sapiens) (UniProt Q9Y6M4). The experiment in a line: Selectivity interaction (KinomeScan (DiscoverX)) EUB0001049a CSNK1G3. As to conditions: at 1 µM.
Sequence of Casein kinase I isoform gamma-3 (Homo sapiens) (Q9Y6M4 whole entry, looked up, canonical isoform): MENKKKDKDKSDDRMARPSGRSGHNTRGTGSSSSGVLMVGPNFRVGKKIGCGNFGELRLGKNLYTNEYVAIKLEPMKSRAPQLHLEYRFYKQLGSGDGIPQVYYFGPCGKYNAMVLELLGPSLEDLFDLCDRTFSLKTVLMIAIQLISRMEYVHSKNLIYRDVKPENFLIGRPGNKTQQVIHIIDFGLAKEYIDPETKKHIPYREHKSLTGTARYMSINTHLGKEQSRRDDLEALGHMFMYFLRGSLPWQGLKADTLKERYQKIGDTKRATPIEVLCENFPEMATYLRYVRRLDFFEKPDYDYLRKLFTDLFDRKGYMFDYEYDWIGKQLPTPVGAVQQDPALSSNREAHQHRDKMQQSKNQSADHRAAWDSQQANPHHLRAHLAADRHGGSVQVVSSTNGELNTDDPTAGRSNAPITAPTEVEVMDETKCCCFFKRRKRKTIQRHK
The target of test [12] is Serine/threonine-protein kinase pim-3 (Homo sapiens) (UniProt Q86V86). The experiment in a line: Selectivity interaction (KinomeScan (DiscoverX)) EUB0000618a PIM3. Conditions: at 10 µM.

Sequence of Ephrin type-A receptor 4 (P54764 whole entry): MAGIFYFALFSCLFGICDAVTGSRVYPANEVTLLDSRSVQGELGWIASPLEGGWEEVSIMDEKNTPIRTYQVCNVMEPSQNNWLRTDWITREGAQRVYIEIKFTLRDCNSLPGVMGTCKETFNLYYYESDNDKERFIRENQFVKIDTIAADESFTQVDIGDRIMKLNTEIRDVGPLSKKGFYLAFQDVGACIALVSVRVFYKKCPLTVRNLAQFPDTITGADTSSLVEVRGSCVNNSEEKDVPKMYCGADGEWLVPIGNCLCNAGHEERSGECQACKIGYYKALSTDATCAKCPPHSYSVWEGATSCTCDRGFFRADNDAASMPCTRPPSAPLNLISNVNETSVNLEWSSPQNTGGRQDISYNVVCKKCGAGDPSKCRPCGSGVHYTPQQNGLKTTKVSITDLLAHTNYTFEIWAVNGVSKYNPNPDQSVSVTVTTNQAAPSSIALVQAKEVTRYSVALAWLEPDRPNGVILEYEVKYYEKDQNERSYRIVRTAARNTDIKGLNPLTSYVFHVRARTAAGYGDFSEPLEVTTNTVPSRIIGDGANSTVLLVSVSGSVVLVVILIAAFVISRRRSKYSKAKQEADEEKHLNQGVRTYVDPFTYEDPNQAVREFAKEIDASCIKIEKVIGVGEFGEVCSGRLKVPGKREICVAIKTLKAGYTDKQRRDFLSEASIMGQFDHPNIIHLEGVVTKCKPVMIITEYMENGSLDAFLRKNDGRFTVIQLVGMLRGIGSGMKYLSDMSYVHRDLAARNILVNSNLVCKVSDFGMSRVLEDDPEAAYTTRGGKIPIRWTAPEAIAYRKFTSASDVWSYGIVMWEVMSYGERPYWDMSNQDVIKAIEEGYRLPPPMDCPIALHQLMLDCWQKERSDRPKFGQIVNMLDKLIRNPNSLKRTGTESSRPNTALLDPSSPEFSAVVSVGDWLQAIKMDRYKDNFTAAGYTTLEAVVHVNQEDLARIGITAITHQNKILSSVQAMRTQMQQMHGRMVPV

For `Cn1cc(-n2cnc3c(NCc4nc5cc(Cl)c(Cl)cc5[nH]4)nc(N4CCOCC4)nc32)cn1`, the % of control on Ephrin type-A receptor 4 was -5.33%.

For the compound `Cc1cc(F)c(C(=O)Nc2cccc(-c3nncn3C(C)C)n2)cc1-n1cnc(C2CC2)c1`, the % of control in test [1] was 100%.

`Cc1cc([C@@H](C)Nc2ccccc2C(=O)O)c2nc(N3CCOCC3)cc(=O)n2c1` [AZD-6482]: the % of control in test [2] stood at 89%.

Turning to `CC[C@@H]1[C@H](F)C(=O)N[C@@H]1COc1nccc2cc(C(N)=O)c(OC)cc12` [ZIMLOVISERTIB], the % of inhibition in [3] was -7.3%; in test [4] it was 0.4%; in test [5] it was -0.2%.

Take `CNCCN1CCC(c2cc(CN(C)C(=O)c3cccc(Oc4ccccc4)c3)ccn2)CC1`: the % activity in test [6] and in test [7] was more than 90% throughout.

In the case of `CN(C)C/C=C/C(=O)Nc1ccc(C(=O)N2CCCC(Nc3ncc(Cl)c(-c4c[nH]c5ccccc45)n3)C2)cc1` (stereo not drawn), the % of control in test [8] turned out to be 84%.

One may read the IC50 as the concentration that inhibits the measured activity by half. A low value points to greater potency in that assay. In [9], `CCc1cccc(CC)c1NC(=O)c1nn(C)c2c1CCc1cnc(Nc3ccc(C(=O)NC4CCN(C)CC4)cc3OC(F)(F)F)nc1-2` registered a concentration for half-maximal inhibition (IC50) of more than 10 µM.

As to `COc1cc(Nc2nc(C)cc(-c3cnn4nc(OC)ccc34)n2)cc(C(F)(F)F)c1`, the % of control in test [10] came to 74%; in test [11], 98%.

Take `O[C@H]1CC[C@H](Nc2ncc3nc(Nc4c(F)cc(F)cc4F)n([C@H]4CCOC4)c3n2)CC1`: the % of control in test [12] worked out at 100%.
